Results from paper PMC3677765 (Forensic science international, 2012).

Assays:
[1] = next specimen collected 18 h later (after the 6 h sample); cited from earlier work
[2] = positive samples among 80 subjects (JWH-018 in 9, JWH-073 in 6); cited from earlier work
Post-preparative = type: physicochemical; details: extracted samples stored in the auto-sampler 72 h at room temperature
[3] = Blood concentrations in mice after inhalation of "Magic Gold" smoke; type: in vivo, C57BL6 mice
[4] = Brain concentrations in mice after inhalation of "Magic Gold" smoke; type: in vivo, C57BL6 mice

Row | SMILES | Serum detection [1] | Serum concentration (mean) [2] | Degradation (auto-sampler stability) (Post-preparative) | JWH-073 blood concentration higher than JWH-018 (mean increase) ([3]; 20 min after exposure) | JWH-073 brain concentration higher than JWH-018 (mean increase) ([4]; 20 min after exposure) | Brain concentration (range) ([4]; 20 h post exposure, five mice) | Detection in blood samples ([3]; 20 min and 20 h after exposure) | Detection in brain samples ([4]; 20 min and 20 h after exposure)
1 | CCCCCn1cc(C(=O)c2cccc3ccccc23)c2ccccc21 [JWH-018, Naphthalen-1-yl-(1-pentylindol-3-yl)methanone] | undetectable | 1.84 ng/mL | – | – | – | – | – | –
2 | CCCCn1cc(C(=O)c2cccc3ccccc23)c2ccccc21 [JWH-073, Naphthalen-1-yl-(1-butylindol-3-yl)methanone] | – | 0.42 ng/mL | approximately 20% | 53% | 84% | not detected | – | –
3 | CCCCCn1cc(C(=O)c2ccc(Cl)c3ccccc23)c2ccccc21 [JWH-398, 4-chloronaphthalen-1-yl-(1-penty-lindolin-3-yl)methanone] | – | – | – | – | – | – | not detected | not detected
